Where two headings read alike, the source gives them in different places.
Columns and labels:
[1] = system: mouse ESC-derived Nkx2.1+ cells; experiment: Generation of proximal airway progenitors from mouse ESC-derived Nkx2.1+ lung endoderm cells; type: cell-based
Description: (§1) Mouse Endoderm Anteriorization and Nkx2.1 Cell Differentiation: Mouse definitive endoderm was generated as described herein. To anteriorize endoderm, on and after day 5, the cells were split and re-seeded on to the plates pre-coated with 804G-conditioned medium and fed with DO medium+0.5-1 μM A8301 (CalBiochem, 616454) for 2 days.

[2] = system: mouse ES cell-derived definitive endoderm; experiment: Anteriorization of mouse ESC-derived definitive endoderm to FoxA2+Sox2+ anterior foregut endoderm; type: cell-based; conditions: for effect on FoxA2+Sox2+ cells: treatment of definitive endoderm at the anteriorization step
Description: This technology was adapted herein to generate definitive endoderm (DE) from mouse ES cells. […] Next, it was asked if the newly generated DE cells have the competence to generate Nkx2.1+ cells. […] Since the inventors had already incorporated BMP inhibition during DE generation (FIG. 7), the question whether continuous BMP inhibition is necessary for anteriorization or if TGFβ inhibition alone was sufficient for anterior patterning was explored. Endoderm was treated with combinations of Activin (a TGFβ agonist), A-83-01 (a TGFβ antagonist), BMP4, and Dorsomorphin (a BMP4 antagonist) for 2 days (FIG. 2B). The number of FoxA2+Sox2+ anterior endoderm cells was compared to the total number of FoxA2+ endoderm cells (FIG. 2B). The treated cells were further exposed to the BMP4/FGF2/WNT agonist cocktail for another 2 days to examine their competence to generate Nkx2.1+ cells (FIG. 2B). […] It was tested if their inhibition would enhance anteriorization together with a TGFβ inhibitor.
Mouse Endoderm Anteriorization and Nkx2.1 Cell Differentiation: Mouse definitive endoderm was generated as described herein. To anteriorize endoderm, on and after day 5, the cells were split and re-seeded on to the plates pre-coated with 804G-conditioned medium and fed with DO medium+0.5-1 μM A8301 (CalBiochem, 616454) for 2 days. Then the media was rinsed with DO medium 2 times and switched to DO medium supplemented with 50 ng/ml BMP4, 100 ng/ml FGF2 (GIBCO, PHG0026), and 5-10 nM GSK3iXV for another 2-3 days. To generate Nkx2.1+Sox2+ proximal progenitor cells, the cells were rinsed with DO medium 2 times and switched to DO medium containing RA-supplemented B27, 50 ng/ml BMP7, 50 ng/ml FGF7, 100 nM IWR-1, and 1-2 μM PD98059 for 2 days or longer times.
Immunofluorescence: At each differentiation step, the cells were fixed with fresh paraformaldehyde (4%) for 15 min at room temperature, rinsed in PBS, washed with PBS+0.2% Triton X-100 and incubated with the primary antibodies at 4° C. overnight (>16 hrs) diluted in PBS+1% BSA. Following incubation, the cells were rinsed 4 times PBS+0.2% Triton X-100, and incubated with secondary antibodies at room temperature for 2 hours. The images were visualized using an Olympus IX71 inverted fluorescence microscope or a Nikon A1 Confocal Laser microscope.
The secondary antibodies were purchased from Invitrogen (AlexaFluor-549 and AlexaFluor-488). The quantification was performed by counting at least 5 random fields at 20× magnification and calculating the average and standard deviation.

[3] = system: human iPSC-derived Foxa2+Sox2+ anterior endoderm; experiment: Chemical screening and differentiation of Nkx2.1+ lung progenitors from human iPSC-derived Foxa2+Sox2+ anterior endoderm; type: cell-based
Description: In order to increase the efficiency of Nkx2.1+ lung progenitor production, the inventors performed an unbiased high throughput chemical screening on a kinase pathway inhibitor library and an NIH clinical drug library to identify small molecule compounds and FDA-approved clinical drugs that can facilitate NKX2.1-positive lung progenitor differentiation. The platform for chemical screening is illustrated in FIG. 14A. The screening was performed at the step of conversion of Foxa2+Sox2+ anterior endoderm to Nkx2.1+ lung endoderm.
At least five molecules were identified from the Kinase Compound Set (240 compounds) and at least 6 drugs were identified from the NIH Clinical Collection (400 compounds) that produced statistically significant (more than 3 fold) increases in the percentage of Nkx2.1+ cells (FIG. 14B). These Nkx2.1+ cells have been further stained in separate experiments to exclude the expression of neuronal lineage marker Tuj1 and thyroid lineage marker Pax8. In addition, all positive candidates identified in the primary screen have been assessed for drug duration and dose effects to increase the formation of lung progenitors, and they have been evaluated for other effects including inducing cytotoxicity, and cellular proliferation by Ki67 staining. […] It was also determined that BMP4 is dispensable for human lung progenitor differentiation from iPSCs, indicating a species difference in lung development in human and mouse.
Several of these negative compounds are MEK1/2 antagonists. […] For example, endoderm-specific deletion of MEK1/2 results in lung agenesis in mice (unpublished data).
After studying the additive and synergistic effects of the positive hits, a robust and economically efficient new protocol was devised for the generation of a highly enriched population of Nkx2.1+ lung progenitors (up to 85%-90%) from multiple iPS cell lines in xeno-free conditions in order to keep the cells suitable for future clinical applications. This exemplary differentiation medium contains one Wnt agonist (e.g., 0.5 uM CHIR9902), one PI3 kinase inhibitor (e.g., 0.02-0.05 uM PIK-75), one clinically used drug (e.g., 0.02-0.05 uM methotrexate), one BMP antagonist (e.g., 2-4 uM Dorsomorphin) and a single growth factor (e.g., 10-50 ng/ml FGF2). FIG. 12 is the summary of the newly developed step-wise airway progenitor differentiation protocol from iPSC to airway progenitors. Many other protocols can be generated by one of skill in the art from this basic protocol (RPMI+2% B27+10-50 ng/ml FGF2+0.5 uM CHIR9902+2-4 uM Dorsomorphin) together with the compounds listed in FIG. 14.

[4] = system: mouse ESC-derived endoderm / anterior foregut endoderm cells; conditions: for NKX2.1 induction: anteriorized endoderm, BMP4 alone, or FGF2 or/and GSK3i without BMP4
Source text: Dorsomorphin inhibits BMP signaling through the SMAD pathway while PD98059 inhibits MAPK signaling.
A recent report described a monolayer-based strategy using synergistic activation of Nodal and Wnt-β-catenin signaling as well as staged BMP4 inhibition to direct mouse ES cells towards an endoderm fate with high efficiency (Sherwood et al., 2011). This technology was adapted herein to generate definitive endoderm (DE) from mouse ES cells. […] Snoeck and colleagues reported that Noggin (a BMP inhibitor) synergized with SB431542 (a TGFβ inhibitor) to suppress a posterior endoderm fate (Cdx2+) in favor of an anterior endoderm fate (Sox2+) (Green et al., 2011). […] Endoderm was treated with combinations of Activin (a TGFβ agonist), A-83-01 (a TGFβ antagonist), BMP4, and Dorsomorphin (a BMP4 antagonist) for 2 days (FIG. 2B). The number of FoxA2+Sox2+ anterior endoderm cells was compared to the total number of FoxA2+ endoderm cells (FIG. 2B). The treated cells were further exposed to the BMP4/FGF2/WNT agonist cocktail for another 2 days to examine their competence to generate Nkx2.1+ cells (FIG. 2B). […] It was tested if their inhibition would enhance anteriorization together with a TGFβ inhibitor.
The expression of lung and other anterior cell fate lineage genes including FoxN1 (thymus), Pax8 (thyroid), and Pax9 and Tbx1 (pharyngeal pouch endoderm) was analyzed by real-time qPCR (Figure S4A).
It was tested if BMP4, FGF2, and WNT signaling are each required to specify lung endoderm from the anterior foregut in an in vitro mouse ESC differentiation system. To do this, anteriorized endoderm cells were exposed to combinations of BMP4, FGF2 and WNT agonists and antagonists (FIGS. 3A and B).
These complexes translocate to the nucleus and activate expression of target genes (von Bubnoff and Cho, 2001; Chen et al., 2004; Sieber et al., 2009; Miyazono et al., 2010). Besides Smad1/5/8-mediated transcription, BMP-induced receptor complexes can activate the mitogen-activated protein kinase (MAPK) pathway via ERK, […] or p38 (Kozawa et al., 2002).
as §1

[5] = system: human Cystic Fibrosis iPSC-derived definitive endoderm cells; experiment: Anteriorization of human Cystic Fibrosis iPSC-derived definitive endoderm (SOX2 induction); type: cell-based
Description: FIG. 6 is a schematic depicting an exemplary strategy and time line to generate Nkx2.1+ lung multipotent progenitors from human iPSCs. Data from the experiment indicate a step-wise differentiation of Nkx2.1+ lung progenitors from human iPSCs. A high yield of definitive endoderm from CF1 RiPS cells was obtained after treatment for 4 days in RPMI-1640 media in the presence of 2% B27 supplement, Activin A (100 ng/ml) and 5 μM PI3 Kinase inhibitor LY294002 with more than 90% of cells co-expressing transcription factors SOX17 and FOXA2 (data not shown). Anteriorization of endoderm into foregut endoderm cells was observed by detecting SOX2 expression in Foxa2+ cells derived from CF1 RiPS cells after 4 days of treatment with 500 nM A-83-01 (TGFβ antagonist) and 100 ng/ml Noggin (BMP4 antagonist) (data not shown). NKX2.1 staining was performed after anteriorization to foregut cells at D8 with serum-free medium containing 20 ng/ml BMP4, 20 ng/ml FGF2 and 5 nM GSK3iXV for 4 days (data not shown). […] In addition, confocal images following immunofluorescence staining indicates some Nkx2.1+ sphere contain basal cells positive for p63 (data not shown).
By using anteriorization conditions similar to Green et al., the induction of SOX2 expression in DE cells was obtained with efficiencies of up to 50%-60% after 4 days of treatment with A-83-01 (a TGFβ antagonist; data not shown). […]

Question: Which results are given for O=C(Nc1cccc2cccnc12)c1ccc(N2C(=O)[C@@H]3[C@H](C2=O)[C@@H]2C=C[C@H]3C2)cc1 [IWR-1]?
Answer: effect on Nkx2.1+Sox2+ cell production ([1]; individual factors removed or replaced in proximal induction medium): most pronounced effect; effect on FoxA2+Sox2+ cells [2]: did not increase the FoxA2+Sox2+ population

Question: For “BMP4: bone morphogenic protein 4, growth factor”, which “requirement for human lung progenitor differentiation from iPSCs” value [3] is on record?
Answer: dispensable

Question: What about the NKX2.1 expression level ([3]; addition of BMP4) of the same molecule?
Answer: decreases NKX2.1 expression

Question: What about the “total NKX2.1+ lung progenitor cell number” value ([3]; addition of BMP4) of the same molecule?
Answer: without affecting the total NKX2.1+ lung progenitor cell number

Question: And the “neuroectodermal marker Tuj1” value ([2]; BMP4 present between days 5-7)?
Answer: less neuroectodermal marker Tuj1 was present

Question: What about the NKX2.1 induction [4] of the same molecule?
Answer: could induce NKX2.1 expression

Question: With COc1cccc(-c2cc(=O)c3ccccc3o2)c1N [PD98059] as the molecule, how does the “Nkx2.1+Sox2+ airway progenitor cells (of total number of Nkx2.1+ cells)” value ([1]; from day 9, 2-3 days, 1%-2% before treatment) read?
Answer: up to 18%

Question: What about the cell death [4] of the same molecule?
Answer: Significant cell death

Question: And the “effect on generation of Nkx2.1+ cells” value ([4]; added to BMP4 induction (pSmad1/5/8 or MAPKK/ERK inhibition))?
Answer: only partially decreased the Nkx2.1+ cell proportion

Question: How did the “induction of SOX2 expression in DE cells, efficiency” value ([5]; 4 days of treatment) turn out when Cc1cccc(-c2nn(C(=S)Nc3ccccc3)cc2-c2ccnc3ccccc23)n1 [A-83-01] was run?
Answer: 50%-60

Question: And the “FoxA2+Sox2+ anterior endoderm (of total FoxA2+ cells)” value ([2]; TGFβ inhibition, 2 days)?
Answer: 40%-55

Question: And the “Nkx2.1+ cells (of total cells)” value ([4]; after 2 days TGFβ inhibition, then BMP4/FGF2/WNT agonist cocktail 2 days)?
Answer: 7%-13

Question: What does the source list for FGF2: fibroblast growth factor?
Answer: effect on Nkx2.1+ cells ([4]; added dose of FGF2 despite presumptive endogenous FGF signaling): upregulated Nkx2.1+ cells; NKX2.1 induction [4]: not sufficient for NKX2.1 induction

Question: For CCN(CC)CCCCNc1ncc2cc(-c3cc(OC)cc(OC)c3)c(NC(=O)NC(C)(C)C)nc2n1 [PD173074], which cell death ([2]; together with a TGFβ inhibitor at anteriorization) is on record?
Answer: induced cell death

Question: For COC(=O)c1ccc[cH-]1.O=C1NC(=O)c2c1c1cccnc1c1[n-]c3c(Br)cc(O)cc3c21.[CH+]=O.[Ru] [GSK3i], which NKX2.1 induction [4] is on record?
Answer: not sufficient for NKX2.1 induction

Question: Which “NKX2.1+ cell production” value ([3]; in vitro differentiation systems) does the source give for CCCCCCCCCCCCCC(=O)O[C@@H]1[C@@H](C)[C@@]2(O)[C@@H](C=C(CO)C[C@]3(O)C(=O)C(C)=C[C@@H]23)[C@@H]2C(C)(C)[C@]12OC(C)=O [phorbol 12-myristate 13-acetate] here?
Answer: stimulates NKX2.1+ cell production

B1: BMP7: BMP family member binding type I receptor ALK2 (protein, UniProt P18075 293-431, looked up)
Bone morphogenetic protein 7: STGSKQRSQNRSKTPKNQEALRMANVAENSSSDQRQACKKHELYVSFRDLGWQDWIIAPEGYAAYYCEGECAFPLNSYMNATNHAIVQTLVHFINPETVPKPCCAPTQLNAISVLYFDDSSNVILKKYRNMVVRACGCH
Question: With B1 as the molecule, how does the “induction of Nkx2.1+ cells from the anterior endoderm compared to BMP4” value ([4]; BMP7 10 ng/ml) read?
Answer: had no effect

Question: And the “induction of Nkx2.1+ cells from the anterior endoderm” value ([4]; increased concentration (>100 ng/ml))?
Answer: still failed to generate Nkx2.1+ cells

B2: Activin: a TGFβ agonist (protein, UniProt P08476 311-426, looked up)
Inhibin beta A chain: GLECDGKVNICCKKQFFVSFKDIGWNDWIIAPSGYHANYCEGECPSHIAGTSGSSLSFHSTVINHYRMRGHSPFANLKSCCVPTKLRPMSMLYYDDGQNIIKKDIQNMIVEECGCS
modifications: Inhibin beta A chain
notes: a TGFβ agonist
Question: Which results are given for B2?
Answer: effect on FoxA2+Sox2+ cells [2]: rare FoxA2+Sox2+ cells; effect on Nkx2.1+ cells ([4]; treatment at the anteriorization step, then BMP4/FGF2/WNT agonist cocktail 2 days): few Nkx2.1+ cells

B3: Noggin: a BMP4 antagonist (protein, UniProt Q13253 28-232, looked up)
Noggin: QHYLHIRPAPSDNLPLVDLIEHPDPIFDPKEKDLNETLLRSLLGGHYDPGFMATSPPEDRPGGGGGAAGGAEDLAELDQLLRQRPSGAMPSEIKGLEFSEGLAQGKKQRLSKKLRRKLQMWLWSQTFCPVLYAWNDLGSRFWPRYVKVGSCFSKRSCSVPEGMVCKPSKSVHLTVLRWRCQRRGGQRCGWIPIQYPIISECKCSC
Question: B3 was tested. Which requirement for anteriorization [5] did it give?
Answer: not necessary
